Columns and labels:
HepG2 tumor = assay: Antitumor efficacy in vivo, HepG2 tumor-bearing mice; conditions: 15 days, Cbz-dFdC i.g. 22 mg/kg/day vs dFdC i.p. 15 mg/kg/day (equimolar)
Experimental: A cell suspension (2 × 10^7 cells/mL) of HepG2 with 0.2 mL was subcutaneously injected into the right armpits of the mice. After the hepatocellular carcinomas were inoculated, mice bearing an overt tumor with a size of 100–200 mm^3 were randomized into the control and treatment groups. One group was injected (i.p.) with PBS as the control group, Cbz-dFdC groups were given with 22 mg/kg/day (i.g.), respectively, and the dFdC groups were given with 15 mg/kg/day (i.p.), respectively. The tumor sizes of all mice were monitored at 0 d, 3 d, 6 d, 9 d, 12 d, and 15 d after drug treatment. The tumor size was converted into tumor volume (V), which was calculated by the formula (L × W^2 × 0.52) and presented as the mean ± standard deviation, where L and W are the length and width of the tumor, respectively. The tumors were measured with a Vernier caliper until day 15, when the PBS brine-treated mice began to die, then all […] were sacrificed via nitrogen inhalation.

[1] = Enzymatic kinetics in vitro, human liver S9; format: in vitro ADME
Experimental: (§1) The SD rats without any treatment were sacrificed after adapting to the environment. Blank blood, the liver, the kidney, and the intestine were collected and treated as described in Section 4.4. Part of the homogenate was removed for centrifugation for 20 min at 9000× g at 4 °C, and the supernatant was obtained as tissue S9. The tissue homogenate and S9 were diluted to […] after the protein concentration was determined by the BCA kit (Abcam, Cambridge, MA, USA). Each matrix consisted of 45 uL of the matrix mixed with 5 uL of the drug dissolved in normal saline solution for about 3 min, followed by incubation at 37 °C in a water bath. Then, acetonitrile containing the internal standard was added to terminate the reaction. Human tissue S9 and human CES1 recombinase purchased from the Ruid Liver Disease Research Co., Ltd. (Shanghai, China) were incubated under the same conditions. An enzyme kinetic study was obtained from the matrix following incubation at 37 °C for 30 min with 5, 10, 20, 50, 100, or 200 μM of Cbz-dFdC. We estimated the parameters and simulated curves according to the Eadie–Hofstee method.

[2] = Enzymatic kinetics in vitro, rat liver homogenate; format: in vitro ADME; conditions: 37 °C, 30 min, 5–200 μM Cbz-dFdC
Experimental: as §1

HepG2 cells = assay: Cell uptake in HepG2 cells; format: cell-based, human
Experimental: The cells were cultured on a 96-well plate for 4 h for each well. Then, dimethyl sulfoxide solution containing 0.1–100 mM of Cbz-dFdC and dFdC was diluted 1000 times with the medium before administration. A total of 200 uL of medium containing Cbz-dFdC and dFdC was added per well (n = 6). The medium with drugs was discarded, and 10% CCK-8 solution was added. Then, the absorbance value was read at a wavelength of 450 nm after incubation at 37 °C, for 30 min. The drug concentration of Cbz-dFdC and dFdC in cell were determined by a previously established method.

[3] = Enzymatic kinetics in vitro, rat kidney homogenate; format: in vitro ADME; conditions: 37 °C, 30 min, 5–200 μM Cbz-dFdC
Experimental: as §1

[4] = Human Liver S9, 37 °C, 30 min, 5–200 μM Cbz-dFdC
[5] = read-out: Km, appearance of dFdC
[6] = read-out: Km, disappearance of Cbz-dFdC
[7] = SD, read-out: Clint, disappearance of Cbz-dFdC

microsomal CLint ([1]; Human Liver S9, 37 °C, 30 min, 5–200 μM Cbz-dFdC, read-out: Clint, disappearance of Cbz-dFdC): 13800 µL/min/mg
Km at 30 min ([1]; Human Liver S9, 37 °C, 30 min, 5–200 μM Cbz-dFdC, read-out: Km, disappearance of Cbz-dFdC): 108 µM
stability in human liver S9 ([1]; human liver S9, easily hydrolyzed into dFdC): unstable
Km [2, 5]: 96.4 µM
Km [2, 6]: 190 µM
microsomal CLint [2, 7]: 2170 µL/min/mg
intracellular concentration (cell uptake) (HepG2 cells): low
Km [3, 5]: 48.9 µM
Km [3, 6]: 148 µM
microsomal CLint [3, 7]: 1100 µL/min/mg
Compound: O=C(Nc1ccn([C@@H]2O[C@H](CO)[C@@H](O)C2(F)F)c(=O)n1)OCc1ccccc1 [Cbz-dFdC, 4-N-carbobenzoxy-gemcitabine]
antitumor effect (tumor size) (HepG2 tumor): slightly better than that of dFdC
Vmax, appearance of dFdC [1, 4]: 480.6 nmol/min/mg pro
Vmax, disappearance of Cbz-dFdC [1, 4]: 1491.3 nmol/min/mg pro
Vmax, appearance of dFdC [2]: 86.8 nmol/min/mg pro
Vmax, disappearance of Cbz-dFdC [2]: 411.6 nmol/min/mg pro
Vmax, appearance of dFdC [3]: 44.3 nmol/min/mg pro
Vmax, disappearance of Cbz-dFdC [3]: 162.7 nmol/min/mg pro

— paper PMC7248705, “A Pharmacokinetic and Pharmacodynamic Evaluation of the Anti-Hepatocellular Carcinoma Compound 4-N-Carbobenzoxy-gemcitabine (Cbz-dFdC)” (Molecules, 2020)
